Measurements taken from patent publication US20220233238A1, “DELIVERY CATHETER AND METHOD OF DISEASE TREATMENT” (Neurotronic, Inc., priority 2019, published 2022).
Values joined by “and” are separate entries in the source; they are usually repeats but may differ in a detail not shown here. Equal entries are not always repeated. “Also recorded” adds a separate entry of the source. Where two headings read alike, the source gives them in different places.

Assays:
[1] = tested on: renal arteries, hepatic artery, splenic artery, and the left gastric artery; details: patient A; for Body weight: base 103 kg; for 24-Hour blood pressure, DBP / 24-Hour blood pressure, SBP: average 24-hour ambulatory; for 24-Hour blood pressure, DBP: base 109; for 24-Hour blood pressure, SBP: base 164; for High-density lipoprotein (HDL): base 39 mg/dL; for Triglycerides: base 336 mg/dL
Method: The targeted arteries for their treatment were renal arteries, hepatic artery, splenic artery, and the left gastric artery.
In the procedure, modest sedation per the institution's standard practice was used and no general anesthesia was used. The arteries were engaged using a 7F guiding catheter, introduced via the femoral artery. Angiography was performed of the arteries before intervention. All four arteries were treated in the same procedure. The treatment started at upper body arteries in the order of splenic, hepatic, left gastric, left renal, and right renal arteries. After the initial angiography survey of the hepatic artery, splenic artery and left gastric artery, the rapid-exchange version of the triple-needle single-balloon catheter was advanced through the guiding catheter and into the artery over a guiding wire.
The maximum catheter needle span diameter was about 12 mm, and the span diameter was adjustable per artery diameter. […] The function of this balloon was to center the distal head/shaft without over-stretching the artery.
The infusion time was within 10 seconds for each application. […] The treatment steps were repeated for the second treatment (balloon inflation, needle deployment, infusion ablation, needle withdrawal, balloon deflation). The total volume of the alcohol used in the two treatments was 1.2 mL for the splenic artery.
The same treatment method and procedure steps as in the treatment of the splenic artery were used for common hepatic artery ablation. The catheter was replaced with a fresh catheter for the common hepatic artery ablation. There were two treatments total at about 15 mm apart of each other (between the treatment sites) for the common hepatic artery with the same ablation dosage of 0.6 mL. The total volume of the alcohol used for the hepatic artery ablation was 1.2 mL. After the hepatic treatment, the catheter was placed into the left gastric artery for next ablation treatment. Again, the same treatment method and procedure was used, with the exception that one ablation treatment of 0.6 mL of the alcohol was applied for the left gastric artery. Angiography was performed after the withdrawal of the triple-needle balloon delivery catheter.
After the ablation treatments of the three arteries above, angiography was performed of the renal arteries before intervention. The suitable branches and main arteries were assessed and predetermined for treatment. After the assessment, the triple-needle balloon delivery catheter was advanced through the guiding catheter and over the guiding wire into the branch artery of left renal arteries and stopped just beyond the bifurcated area.

[2] = tested on: hepatic, splenic, celiac, right renal and left renal arteries; details: patient B; for Body weight: base 83 kg
Method: (§1) In another example, multiple arteries/tissues were treated for hypertension. […] Patient B had 5 years of hypertension history. Patient B went through the same procedure and ablation treatment method as patient A in Example 3.
In another example, multiple arteries/tissues were treated for managing body weight. The patient B with 3 years of obesity history had their body weight improved after the ablation procedure. The treated multiple arteries were hepatic, splenic, celiac, right renal and left renal arteries.

[3] = tested on: hepatic, splenic, celiac, right renal and left renal arteries; details: patient B; for fasting glucose: base 186 mg/dL
Method: as §1
In another example, multiple arteries/tissues were treated for diabetes.

renal artery = experiment: Pre-clinical trial: renal artery ethanol ablation (renal denervation) with triple-needle single-balloon catheter
hepatic artery = experiment: Pre-clinical trial: hepatic artery ethanol ablation (hepatic denervation) with triple-needle single-balloon catheter
[4] = tested on: hepatic, splenic, celiac, right renal and left renal arteries; details: patient B; for average 24-hour ambulatory blood pressure, DBP: base 79; for average 24-hour ambulatory blood pressure, SBP: base 136
Method: as §1

[5] = maintained at 3 months follow-up

Q: With CCO [ethanol] as the molecule, how does the Body weight ([1]; 1 mo post-procedure) read?
A: Its Body weight is 95.6 kg.

Q: What about the “24-Hour blood pressure, DBP” value ([1]; 1 mo) of the same molecule?
A: Its value is 87 mmHg.

Q: What about the “24-Hour blood pressure, SBP” value ([1]; 1 mo) of the same molecule?
A: The value was 140 mmHg.

Q: And the “High-density lipoprotein (HDL)” value ([1]; 1 mo)?
A: Its value is 43 mg/dL.

Q: And the Triglycerides ([1]; 1 mo)?
A: Its Triglycerides is 139 mg/dL.

Q: And the Body weight ([1]; 2 wk post-procedure)?
A: Its Body weight is 96.2 kg.

Q: What about the “High-density lipoprotein (HDL)” value ([1]; 2 wks) of the same molecule?
A: The value was 42 mg/dL.

Q: What about the Triglycerides ([1]; 2 wks) of the same molecule?
A: The Triglycerides was 160 mg/dL.

Q: And the TG/HDL ratio ([1]; 3-month follow-up, 8.6 at baseline, normal range <5)?
A: The TG/HDL ratio was 4.2.

Q: And the “24-Hour blood pressure, DBP” value ([1]; 3 mo)?
A: Its value is 84 mmHg.

Q: And the “24-Hour blood pressure, SBP” value ([1]; 3 mo)?
A: The value was 141 mmHg.

Q: What about the “HbA1c value change vs baseline” value ([1]; 3 months follow-up, absolute change) of the same molecule?
A: Its value is about −1%.

Q: And the Body weight ([1]; 3 mos post-procedure)?
A: The Body weight was 96.2 kg.

Q: What about the “High-density lipoprotein (HDL)” value ([1]; 3 mos) of the same molecule?
A: Its value is 40 mg/dL.

Q: What about the Triglycerides ([1]; 3 mos) of the same molecule?
A: The Triglycerides was 167 mg/dL.

Q: What about the “Blood sugar level, HbA1c” value ([1]; 3 mos, base 7.5%) of the same molecule?
A: The value was 6.6%.

Q: And the “weight loss, reduction” value ([1]; since week 3 (2 wk time point), maintained at 3 months)?
A: The value was “about 7%”.

Q: What about the triglyceride level reduction ([1]; two weeks follow-up) of the same molecule?
A: Its triglyceride level reduction is “about 50%”.

Q: What about the “diastolic (DBP) blood pressure drop from the baseline” value [1, 5] of the same molecule?
A: Its value is about 20%.

Q: What about the “systolic (SBP) blood pressure drop from the baseline” value [1, 5] of the same molecule?
A: Its value is “about 14%”.

Q: And the Body weight ([2]; 1 mo)?
A: Its Body weight is 79.9 kg.

Q: What about the “initial body weight loss from the baseline” value ([2]; 2 weeks follow-up) of the same molecule?
A: Its value is −4.5%.

Q: And the Body weight ([2]; 2 wks)?
A: The Body weight was 79.3 kg.

Q: And the Body weight ([2]; 3 mos)?
A: The Body weight was 79.1 kg.

Q: And the “fasting glucose level change from baseline” value ([3]; 1-month follow-up)?
A: The value was −50%.

Q: And the fasting glucose ([3]; 1 mo)?
A: The fasting glucose was 92 mg/dL.

Q: And the “fasting glucose level change from baseline” value ([3]; 2 weeks follow-up)?
A: Its value is −32%.

Q: What about the fasting glucose ([3]; 2 wks) of the same molecule?
A: The fasting glucose was 127 mg/dL.

Q: What about the “HbA1c improvement from the baseline, absolute value” ([3]; 3 months after the procedure) of the same molecule?
A: Its value is −2.1%.

Q: What about the HbA1c percent reduction ([3]; 3 months after the procedure, relative to baseline) of the same molecule?
A: The HbA1c percent reduction was about 26%.

Q: What about the “fasting glucose level reduction from the baseline” value ([3]; 3 months follow-up) of the same molecule?
A: Its value is −41%.

Q: What about the fasting glucose ([3]; 3 mos) of the same molecule?
A: Its fasting glucose is 110 mg/dL.

Q: What about the “Blood sugar HbA1c” value ([3]; 3 mos, base 8.1%) of the same molecule?
A: Its value is 6.0%.

Q: What about the “histopathologic evaluation of renal arteries and surrounding tissues” value (renal artery; after ethanol ablation, FIG. 11) of the same molecule?
A: Its value is “renal nerve injury; also recorded: severed renal nerves necrosis”.

Q: And the “renal arterial spasms (post-ablation renal angiograms)” value (renal artery; during and after the infusion treatment)?
A: The value was “no significant renal arterial spasms”.

Q: What about the “average renal tissue NE content, treated side” value (renal artery; porcine renal cortex, two weeks after treatment, HPLC, control side 87 ng/g) of the same molecule?
A: Its value is 4.9 ng/g.

Q: And the “reduction in renal norepinephrine concentration” value (renal artery; porcine, two weeks after treatment, treated side vs contralateral untreated renal artery side (control 87 ng/g), total 1.8 mL)?
A: The value was 94%.

Q: What about the gross necropsy (renal artery; two weeks after treatment) of the same molecule?
A: The gross necropsy was “all treatment related organs were normal”.

Q: What about the “arterial spasms (hepatic angiograms)” value (hepatic artery; during and after the infusion treatment, both animals) of the same molecule?
A: Its value is “no significant arterial spasms”.

Q: And the “average liver NE concentration reduction” value (hepatic artery; one value per animal (two animals), two weeks after treatment, vs untreated control animal, 2 x 0.6 mL)?
A: The value was 85% and 94%.

Q: And the gross necropsy (hepatic artery; two weeks after the treatment)?
A: The gross necropsy was “all treatment related organs were normal”.

Q: What about the “average 24-hour ambulatory blood pressure, DBP” value ([4]; 1 mo) of the same molecule?
A: The value was 61 mmHg.

Q: And the “average 24-hour ambulatory blood pressure, SBP” value ([4]; 1 mo)?
A: The value was 107 mmHg.

Q: What about the “diastolic (DBP) blood pressure drop from the baseline” value ([4]; 1 month follow-up) of the same molecule?
A: Its value is about 23%.

Q: And the “systolic (SBP) blood pressure drop from the baseline” value ([4]; 1 month follow-up)?
A: Its value is “about 21%”.

Q: What about the “average 24-hour ambulatory blood pressure, DBP” value ([4]; 3-mo) of the same molecule?
A: The value was 66 mmHg.

Q: And the “average 24-hour ambulatory blood pressure, SBP” value ([4]; 3-mo)?
A: Its value is 115 mmHg.

Q: What about the “DBP percentage drop from baseline level” value ([4]; 3 month follow-up) of the same molecule?
A: Its value is “about 15%”.

Q: And the “SBP percentage drop from baseline level” value ([4]; 3 month follow-up)?
A: Its value is “about 15%”.
